Literature values, collected in patent US20170027865A1, “Dry Pharmaceutical Compositions for Topical Delivery of Oral Medications, Nasal Delivery and to Treat Ear Disorders” (CMPD LICENSING LLC, priority 2013, published 2017).
Like-named read-outs stand apart in the source and are kept apart here.

How the values were obtained:
Serratia marcescens = details: Gram: neg
Enterococcus faecium = details: Gram: pos
Klebsiella oxytoca = details: Gram: neg
Providencia stuartii = details: Gram: neg
[1] = system: Klebsiella (Calymmatobacterium) granulomatis; details: Gram: neg
Mycoplasma pneumoniae = details: Gram: n/a
Proteus mirabilis = details: Gram: neg
Clostridium difficile = details: Gram: anaer
[2] = system: Haemophilus parainfluenzae; details: Gram: neg
Moraxella catarrhalis = details: Gram: neg
Providencia rettgeri = details: Gram: neg
Citrobacter freundii = details: Gram: neg
Chlamydia trachomatis = details: Gram: n/a
Enterobacter aerogenes = details: Gram: neg
Shigella flexneri = details: Gram: neg
Streptococcus pyogenes = details: Gram: pos
[3] = system: Staphylococcus aureus (MSSA); details: Gram: pos
Klebsiella pneumoniae = details: Gram: neg
Escherichia coli = details: Gram: neg
Bacteroides fragilis = details: Gram: anaer
Corynebacterium jeikeium = details: Gram: pos
Enterococcus faecalis = details: Gram: pos
Enterobacter sakazakii = details: Gram: neg
[4] = system: Methicillin Resistant Staph aureus (MRSA); details: Gram: pos
Shigella dysenteriae = details: Gram: neg
Shigella sonnei = details: Gram: neg
[5] = system: Viridans group streptococci; details: Gram: pos
Morganella morganii = details: Gram: neg
Haemophilus influenzae = details: Gram: neg
Diphtheroids = details: Gram: pos
Shigella boydii = details: Gram: neg
Streptococcus pneumoniae = details: Gram: pos
[6] = system: Acinetobacter calcoaceticus; details: Gram: neg
Citrobacter diversus = details: Gram: neg
Haemophilus ducreyi = details: Gram: neg
[7] = system: Corynebacterium urealyticum; details: Gram: pos
Chlamydia pneumoniae = details: Gram: n/a
Streptococcus agalactiae = details: Gram: pos
Pseudomonas aeruginosa = details: Gram: neg
Campylobacter jejuni = details: Gram: neg
Vibrio cholerae = details: Gram: neg
Acinetobacter baumannii = details: Gram: neg
Peptostreptococcus = details: Gram: pos
Neisseria meningitidis = details: Gram: neg
Salmonella typhi = details: Gram: neg
Acinetobacter lwoffii = details: Gram: neg
Neisseria gonorrhoeae = details: Gram: neg
[8] = system: Staphylococcus epidermidis; details: Gram: pos
Bordetella pertussis = details: Gram: neg
Proteus vulgaris = details: Gram: neg
Enterobacter cloacae = details: Gram: neg
Bartonella bacilliformis = details: Gram: neg
Pseudomonas fluorescens = details: Gram: neg

## CO/N=C(\C(=O)N[C@@H]1C(=O)N2C(C(=O)O)=C(CSc3nc(=O)c(=O)[nH]n3C)CS[C@H]12)c1csc(N)n1 [Ceftriaxone, ceftriaxone]
Serratia marcescens
  Expected coverage: yes
Enterococcus faecium
  Expected coverage: no
Legionella pneumophila; Legionella pneumophila, Gram: neg
  Expected coverage: no
Klebsiella oxytoca
  Expected coverage: yes
Providencia stuartii
  Expected coverage: yes
[1]
  Expected coverage: yes
Mycoplasma pneumoniae
  Expected coverage: no
Francisella tularensis; Francisella tularensis, Gram: neg
  Expected coverage: no
Proteus mirabilis
  Expected coverage: yes
Clostridium difficile
  Expected coverage: no
[2]
  Expected coverage: yes
Moraxella catarrhalis
  Expected coverage: yes
Providencia rettgeri
  Expected coverage: yes
Chlamydia psittaci; Chlamydia psittaci, Gram: n/a
  Expected coverage: no
Citrobacter freundii
  Expected coverage: yes
Chlamydia trachomatis
  Expected coverage: no
Enterobacter aerogenes
  Expected coverage: yes
Shigella flexneri
  Expected coverage: yes
Streptococcus pyogenes
  Expected coverage: yes
[3]
  Expected coverage: yes
Klebsiella pneumoniae
  Expected coverage: yes
Yersinia pestis; Yersinia pestis, Gram: neg
  Expected coverage: no
Escherichia coli
  Expected coverage: yes
Bacteroides fragilis
  Expected coverage: yes
Corynebacterium jeikeium
  Expected coverage: no
Enterococcus faecalis
  Expected coverage: no
Enterobacter sakazakii
  Expected coverage: yes
[4]
  Expected coverage: no
Shigella dysenteriae
  Expected coverage: yes
Shigella sonnei
  Expected coverage: yes
[5]
  Expected coverage: yes
Morganella morganii
  Expected coverage: yes
Haemophilus influenzae
  Expected coverage: yes
Diphtheroids
  Expected coverage: no
Shigella boydii
  Expected coverage: yes
Streptococcus pneumoniae
  Expected coverage: yes
Clostridium perfringens; Clostridium perfringens, Gram: anaer
  Expected coverage: yes
Rickettsiae; Rickettsiae, Gram: neg
  Expected coverage: no
[6]
  Expected coverage: no
Citrobacter diversus
  Expected coverage: yes
Haemophilus ducreyi
  Expected coverage: yes
[7]
  Expected coverage: no
Chlamydia pneumoniae
  Expected coverage: no
Streptococcus agalactiae
  Expected coverage: yes
Pseudomonas aeruginosa
  Expected coverage: no
Campylobacter jejuni
  Expected coverage: no
Vibrio cholerae
  Expected coverage: no
Acinetobacter baumannii
  Expected coverage: no
Peptostreptococcus
  Expected coverage: yes
Neisseria meningitidis
  Expected coverage: yes
Salmonella typhi
  Expected coverage: yes
Acinetobacter lwoffii
  Expected coverage: no
Neisseria gonorrhoeae
  Expected coverage: yes
[8]
  Expected coverage: yes
Bordetella pertussis
  Expected coverage: no
Proteus vulgaris
  Expected coverage: yes
Enterobacter cloacae
  Expected coverage: yes

## CN[C@H](CC(C)C)C(=O)N[C@H]1C(=O)N[C@@H](CC(N)=O)C(=O)N[C@H]2C(=O)N[C@H]3C(=O)N[C@H](C(=O)N[C@H](C(=O)O)c4cc(O)cc(O)c4-c4cc3ccc4O)[C@H](O)c3ccc(c(Cl)c3)Oc3cc2cc(c3O[C@@H]2O[C@H](CO)[C@@H](O)[C@H](O)[C@H]2O[C@H]2C[C@](C)(N)[C@H](O)[C@H](C)O2)Oc2ccc(cc2Cl)[C@H]1O [Vancomycin, vancomycin]
Serratia marcescens
  Expected coverage: no
Brucella species
  Expected coverage: no
Legionella pneumophila
  Expected coverage: no
Klebsiella oxytoca
  Expected coverage: no
Providencia stuartii
  Expected coverage: no
[1]
  Expected coverage: no
Mycoplasma pneumoniae
  Expected coverage: no
Francisella tularensis
  Expected coverage: no
Proteus mirabilis
  Expected coverage: no
Clostridium difficile
  Expected coverage: yes
[2]
  Expected coverage: no
Moraxella catarrhalis
  Expected coverage: no
Providencia rettgeri
  Expected coverage: no
Chlamydia psittaci
  Expected coverage: no
Citrobacter freundii
  Expected coverage: no
Chlamydia trachomatis
  Expected coverage: no
Enterobacter aerogenes
  Expected coverage: no
Shigella flexneri
  Expected coverage: no
Streptococcus pyogenes
  Expected coverage: yes
[3]
  Expected coverage: yes
Klebsiella pneumoniae
  Expected coverage: no
Yersinia pestis
  Expected coverage: no
Escherichia coli
  Expected coverage: no
Bacteroides fragilis
  Expected coverage: no
Corynebacterium jeikeium
  Expected coverage: yes
Enterococcus faecalis
  Expected coverage: yes
Enterobacter sakazakii
  Expected coverage: no
[4]
  Expected coverage: yes
Shigella dysenteriae
  Expected coverage: no
Shigella sonnei
  Expected coverage: no
[5]
  Expected coverage: yes
Bartonella bacilliformis
  Expected coverage: no
Morganella morganii
  Expected coverage: no
Haemophilus influenzae
  Expected coverage: no
Diphtheroids
  Expected coverage: yes
Pseudomonas fluorescens
  Expected coverage: no
Shigella boydii
  Expected coverage: no
Streptococcus pneumoniae
  Expected coverage: yes
Clostridium perfringens
  Expected coverage: no
Rickettsiae
  Expected coverage: no
[6]
  Expected coverage: no
Citrobacter diversus
  Expected coverage: no
Haemophilus ducreyi
  Expected coverage: no
[7]
  Expected coverage: yes
Chlamydia pneumoniae
  Expected coverage: no
Streptococcus agalactiae
  Expected coverage: yes
Pseudomonas aeruginosa
  Expected coverage: no
Campylobacter jejuni
  Expected coverage: no
Vibrio cholerae
  Expected coverage: no
Acinetobacter baumannii
  Expected coverage: no
Peptostreptococcus
  Expected coverage: yes
Neisseria meningitidis
  Expected coverage: no
Salmonella typhi
  Expected coverage: no
Acinetobacter lwoffii
  Expected coverage: no
Neisseria gonorrhoeae
  Expected coverage: no
[8]
  Expected coverage: yes
Bordetella pertussis
  Expected coverage: no
Proteus vulgaris
  Expected coverage: no
Enterobacter cloacae
  Expected coverage: no
